Assay results taken from patent US10167257B2, “Indole derivatives for use in medicine” (IOmet Pharma Ltd., priority 2014, dated 2019).

What was measured:
[1] = target: human TDO protein (Homo sapiens, UniProt P48775); assay: TDO biochemical coupled assay (hTDO); conditions: 2 μM human TDO protein, biochemical coupled assay with formamidase; read-out: pIC50 in the hTDO test (converted)
From the text: (§1) Two different types of assay were employed: 1. A TDO and IDO biochemical coupled assay which utilised recombinantly produced and purified TDO and IDO enzymes in combination with the enzyme formamidase. This coupled enzyme system allowed conversion of N-formylkynurenine produced by TDO or IDO activity to kynurenine which was then quantified by fluorescence following addition of Erhlich's Reagent. 2. A cell-based assay for detecting the effect of test compounds on kynurenine production in two different cancer cell types. This assay utilised cancer cells which expressed either TDO or IDO and as such was used as a means of testing compound activity at these two enzymes in a cell-based context. The protocols for these are set out below.
2 μM of human TDO protein was pre-incubated for 10 minutes at RT with test compounds in the presence of 50 mM KH2PO4, pH 7.0, 0.5 mM EDTA, 0.5 mM EGTA, 0.05% Triton X-100, 20 mM ascorbate, 500 U/ml catalase, 10 μM methylene blue at RT in a 384 well plate. 0.05 μg/μl kynurenine formamidase and 330 μM or 178 μM L-tryptophan were added and the assays were incubated at room temperature (RT) for 17 min. Assays were stopped and the level of kynurenine was determined by incubation with Ehrlich's reagent to a final concentration of 1.33% at RT for 5 min. Fluorescence intensity was read at 475 nm/530 nm.

[2] = target: T1, TDO (A172 cells) (Homo sapiens, UniProt P48775); assay: TDO cell-based assay (A172), kynurenine production; conditions: A172 human glioblastoma cells, 500 μM L-Trp, 48 h, kynurenine by absorbance at 490 nm; read-out: TDO cellular assay (A172) pIC50 (converted)
T1 construct: This assay utilised cancer cells which expressed either TDO or IDO; host or cells: A172 human glioblastoma cells
In short: (§2)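 Kynurenine output was read at 490 nm after 5 min with 1% Ehrlich's reagent, using supernatants from 48 h, 37 °C cultures containing 500 μM L-Trp and test compound. TDO activity came from A172 cells. IDO activity came from SKOV-3 cells, whose expression was induced by adding 500 ng/ml IFNγ.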

[3] = target: human IDO protein (Homo sapiens, UniProt P14902); assay: IDO biochemical coupled assay (hIDO); conditions: 0.17 μM human IDO protein, biochemical coupled assay with formamidase; read-out: pIC50 in the hIDO assay (converted)
From the text: as §1
0.17 μM of human IDO protein was pre-incubated for 10 min or 120 min at RT with test compounds in the presence of 50 mM KPO4, pH 7.0, 0.5 mM EDTA, 0.5 mM EGTA, 0.05% Triton X-100, 20 mM ascorbate, 500 U/ml catalase, 10 μM methylene blue at RT in a 384 well plate. 0.05 μg/μl kynurenine formamidase and 45 μM or 121 μM L-tryptophan (L-Trp) were added and the assays were incubated at RT for 17 min. Assays were stopped and the level of kynurenine was determined by incubation with Ehrlich's reagent to a final concentration of 1.33% at RT for 5 min. Fluorescence intensity was read at 475 nm/530 nm.

[4] = target: T2, IDO (SKOV-3 cells) (Homo sapiens, UniProt P14902); assay: IDO cell-based assay (SKOV-3, IFNγ-induced), kynurenine production; conditions: SKOV-3 ovary adenocarcinoma cells, IFNγ 500 ng/ml, 500 μM L-Trp, 48 h, kynurenine by absorbance at 490 nm; read-out: IDO cellular assay (SKOV3) pIC50 (converted)
T2 construct: This assay utilised cancer cells which expressed either TDO or IDO; host or cells: SKOV-3 ovary adenocarcinoma cells, IFNγ-induced
In short: as §2

T1 sequence (P48775 whole entry): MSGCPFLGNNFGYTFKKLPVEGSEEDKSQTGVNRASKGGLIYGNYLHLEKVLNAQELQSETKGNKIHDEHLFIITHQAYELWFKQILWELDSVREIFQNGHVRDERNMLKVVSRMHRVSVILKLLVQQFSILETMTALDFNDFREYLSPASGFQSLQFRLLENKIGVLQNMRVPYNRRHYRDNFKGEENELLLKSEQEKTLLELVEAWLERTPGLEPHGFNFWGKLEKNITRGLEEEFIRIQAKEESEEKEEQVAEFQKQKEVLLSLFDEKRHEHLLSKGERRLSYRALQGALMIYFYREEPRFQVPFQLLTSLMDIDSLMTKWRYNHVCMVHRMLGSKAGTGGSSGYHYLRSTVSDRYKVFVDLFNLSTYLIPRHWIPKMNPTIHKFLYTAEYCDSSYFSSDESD
Chain of human TDO protein (P48775 whole entry): as above
Chain of human IDO protein (P14902 whole entry): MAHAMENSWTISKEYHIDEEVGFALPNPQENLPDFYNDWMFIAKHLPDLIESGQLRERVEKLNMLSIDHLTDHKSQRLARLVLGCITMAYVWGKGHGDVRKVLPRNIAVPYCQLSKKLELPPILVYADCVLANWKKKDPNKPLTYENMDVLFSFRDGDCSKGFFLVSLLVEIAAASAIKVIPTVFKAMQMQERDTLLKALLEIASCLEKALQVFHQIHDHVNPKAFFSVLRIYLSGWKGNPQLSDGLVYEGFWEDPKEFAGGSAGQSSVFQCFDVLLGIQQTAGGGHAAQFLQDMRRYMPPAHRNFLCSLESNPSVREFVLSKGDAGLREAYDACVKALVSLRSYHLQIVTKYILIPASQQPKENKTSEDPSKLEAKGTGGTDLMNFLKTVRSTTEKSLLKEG
T2 sequence (P14902 whole entry): as above

- IC50 [1]: > 102 µM
- IC50 [2]: > 31.6 µM
- IC50 [3]: > 102 µM
- IC50 [4]: > 31.6 µM
Structure (SMILES): O=C(Nc1cccnc1)c1cc2ccccc2[nH]1 [REF, reference compound]
